Legend:
H9c2 cardiac myoblasts [1] = assay: H9c2 cell protection from H2O2-mediated oxidative stress, CCK-8; type: cell-based, rat; settings: 50 μM, 4 and 8 h, then H2O2 200 μM
Protocol: The cytoprotective effects of 1a was then measured against oxidative stress.
(§2) H9c2 embryonic rat heart myoblasts were obtained from the American Type Culture Collection. Cells were grown in Dulbecco's minimal essential medium (DMEM), supplemented with fetal bovine serum (FBS) 10%, penicillin 100 U/mL and streptomycin 100 μg/mL. They were propagated in T75-flasks, split before reaching 70-80% confluence (usually every day or every second day), and used within 11 passages. Cells were passaged to tissue culture treated 96-well microtiter plates at the specified density in 180 μL volumes and incubated for 24 h.
Cells were seeded at a density of 5×10^3 cells/well. After 24 h, precursor 1a or by-product 4a was added at 20 μL volumes using DMSO:H2O (<0.01% DMSO as the vehicle). Cells were incubated for 2 h before media was removed and the cells gently washed with PBS (pH 7.4). Then, 180 μL of fresh media and 20 μL H2O2 diluted into H2O were added and cells were incubated for an additional 2 h. At the completion of H2O2 exposure, each well is carefully washed 3 times with PBS (pH 7.4) before adding 100 μL of media, without-FBS, containing 10% v/v CCK-8 (Dojindo) and incubated for 3 h prior to obtaining absorbance values at 450 nm. The relative % viability was calculated as 100 times the ratio of the Abs450 (pre-treated, H2O2-exposed) over Abs450 (vehicle-treated, non H2O2-exposed).

[2] = tested on: FA skin fibroblasts (GM04078); assay: Cytotoxicity in FA skin fibroblasts; settings: 24 h of exposure, at least up to 100 μM
Description: (§1) Initially, we measured the cytotoxicity of AST in FA skin fibroblasts (GM04078), obtained from the Coriell Institute, to ensure that the RSSH donor itself is not cytotoxic. […] We then measured the ability of AST to confer cytoprotection in FA fibroblasts against hydrogen peroxide (H2O2) stress.

H9c2 cardiac myoblasts [3] = assay: Cytotoxicity study, Sytox Green viability assay; settings: up to 100 mM, 24 h
Protocol: as §2
Cells were seeded at a density of 1×10^4 cells/well. After 24 h, the media was replaced and compound added in 20 μL volumes using DMSO:H2O (<0.01% DMSO) as the vehicle. Cells were incubated for an additional 24 h before media was removed. Then, 100 μL of media containing 3 μM Sytox Green nucleic acid stain (Invitrogen) was added and the cells were incubated for 2 h before fluorescence readings were obtained at 485Ex/538Em (Step 1). Finally, an additional 100 μL of media containing 3 μM Sytox and 0.2% Triton X-100 was added to permeabilize all cells and incubated for 1 h before fluorescence values measured (Step 2). The relative % cells surviving was calculated as a 100% minus the ratio of the fluorescence value of Step 1 over Step 2 (% cells surviving=100%−(FL538 (Step 1)/FL538 (Step 2)). See FIG. 8.

FA fibroblasts (GM04078) = assay: Cytoprotection against H2O2 stress in FA fibroblasts, CCK8; type: cell-based, human; settings: 4 h pretreatment, H2O2 75 μM for 4 h
Protocol: FIG. 10A, pretreatment of AST with varying concentrations in FA fibroblasts (GM04078, Coriell Institute) for 4 h followed by 4 h treatment with H2O2. Viability was measured using CCK8 assay. FIG. 10B, pretreatment of AST with varying concentrations in FA fibroblasts for 4 h followed by treatment with erastin for 24 h. […] Group comparisons are determined by a one-way analysis of variance (ANOVA) with Dunnet's correction post-hoc test using GraphPad Prism 8;
as §1

[4] = Decomposition of precursors in the presence of thiol (NAC / N-acetyl cysteine methyl ester), HPLC; type: physicochemical; settings: 5 equiv NAC, PBS pH 7.4, HPLC
Protocol: Initially, the decomposition of 1a was analyzed in the presence of 5 equiv of N-acetylcysteine (NAC) in PBS (pH 7.4) by HPLC. […] To investigate the mechanism, this reaction was monitored by UPLC-MS. […] Additionally, a small amount of unsymmetrical dialkyl polysulfide (pink highlight, R^1SSnSR^2, n=0-3) is observed, likely formed via NAC reaction with symmetrical dialkyl polysulfides (Scheme 1-5, eq. 7). As expected, a new peak at 5.65 min corresponding to N-acetyl cysteine-thiocarbonate 9a also is observed, confirming thiol attack at the perthiocarbonate carbonyl carbon of 1a to release RSSH. Due to the unstable nature of RSSH under these experimental conditions, the yield of the by-product 9a was measured as an indication of RSSH yield. The observation of RSSH-derived polysulfides formation as major products led us to anticipate the efficient formation of by-product 9a. […] The lower observed yield of 9a is likely due to its further reaction with RSSH under these conditions. […]
To a solution of N-acetyl cysteine methyl ester (500 μM) in pH 7.4 phosphate buffer saline (100 mM) containing DTPA (100 μM), precursor 1a or 8 (100 μM) was added. […] At different time points, an aliquot of the reaction mixture (500 μL) was withdrawn and transferred to pre-cooled 0.1% formic acid (500 μL) and analyzed using HPLC. […]

t1/2 of decomposition in the presence of thiol [4] [min]	SMILES	cytoprotection against H2O2-mediated toxicity (by-product control) (H9c2 cardiac myoblasts [1])	toxicity toward FA fibroblasts [2]	toxicity toward H9c2 cells (H9c2 cardiac myoblasts [3])	cytoprotection against H2O2 stress (FA fibroblasts (GM04078))
	Oc1ccccc1 [Precursor 4a, phenol]	no protective effect	do not show toxicity	no toxicity	ineffective
4.0 ± 0.7	COC(=O)C(NC(C)=O)C(C)(C)SSC(=O)OCc1ccccc1 (centres unmarked) [Precursor 8, Methyl 2-acetamido-3-(((benzyloxy)carbonyl)disulfaneyl)-3-methylbutanoate]				

Reference: patent publication US20250282720A1, “ALKYLSULFENYL THIOCARBONATES: PRECURSORS TO HYDROPERSULFIDES POTENTLY ATTENUATE OXIDATIVE STRESS” (The Johns Hopkins University, priority 2021, published 2025)
